The source of these data is patent US12172995B2, “Substituted indole and indazole compounds” (BRISTOL-MYERS SQUIBB COMPANY, priority 2018, dated 2024).

Format in all cases: cell-based
In one experiment the target is T1, human TLR7 (Homo sapiens, UniProt Q9NYK1).
T1 construct: host or cells: HEK-Blue cells
T1 sequence (Q9NYK1 27-1049): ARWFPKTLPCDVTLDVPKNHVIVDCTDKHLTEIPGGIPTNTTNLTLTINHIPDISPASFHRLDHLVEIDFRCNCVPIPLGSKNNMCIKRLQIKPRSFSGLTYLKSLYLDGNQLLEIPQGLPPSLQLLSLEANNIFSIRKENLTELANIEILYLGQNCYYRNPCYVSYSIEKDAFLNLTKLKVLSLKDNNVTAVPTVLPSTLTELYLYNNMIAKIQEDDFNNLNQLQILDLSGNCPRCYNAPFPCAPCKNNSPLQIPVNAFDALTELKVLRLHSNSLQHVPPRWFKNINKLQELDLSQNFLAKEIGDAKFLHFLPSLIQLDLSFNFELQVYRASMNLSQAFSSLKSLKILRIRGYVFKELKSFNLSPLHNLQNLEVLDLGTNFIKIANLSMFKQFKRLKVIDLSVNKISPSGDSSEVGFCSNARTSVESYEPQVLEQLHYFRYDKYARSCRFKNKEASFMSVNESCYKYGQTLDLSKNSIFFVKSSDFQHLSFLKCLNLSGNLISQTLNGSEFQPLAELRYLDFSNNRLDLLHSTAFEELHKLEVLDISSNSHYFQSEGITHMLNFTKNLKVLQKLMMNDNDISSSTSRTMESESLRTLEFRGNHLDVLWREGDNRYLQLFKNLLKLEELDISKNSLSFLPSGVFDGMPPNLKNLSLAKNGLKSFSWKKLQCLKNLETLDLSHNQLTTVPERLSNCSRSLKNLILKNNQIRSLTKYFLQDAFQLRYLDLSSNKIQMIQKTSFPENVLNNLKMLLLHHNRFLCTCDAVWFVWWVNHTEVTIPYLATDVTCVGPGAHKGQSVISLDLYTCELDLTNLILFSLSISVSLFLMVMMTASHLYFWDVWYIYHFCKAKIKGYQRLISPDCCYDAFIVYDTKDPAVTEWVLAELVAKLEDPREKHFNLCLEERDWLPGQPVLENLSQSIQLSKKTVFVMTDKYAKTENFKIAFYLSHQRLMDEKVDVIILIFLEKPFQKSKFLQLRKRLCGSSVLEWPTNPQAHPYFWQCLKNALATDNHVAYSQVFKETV
In words: TLR7 inhibition reporter assay (HEK-Blue SEAP). The conditions noted are these: HEK-Blue cells overexpressing human TLR7, stimulated with gardiquimod 7.5 μM, 22 hour incubation. The essentials:
(§1)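 HEK-Blue cells overexpressing the receptor, with an NF-κB/AP-1-driven SEAP reporter, were pre-treated with compound (0.05 nM to 50 μM) for 30 min at room temperature. Stimulation used gardiquimod 7.5 μM (TLR7), R848 15.9 μM (TLR8) or ODN2006 5 nM (TLR9), followed by 22 h at 37 °C.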
On the technique in general: In a reporter assay the amount or activity of a reporter protein is the signal.

The target of a further experiment is T2, human TLR8 (Homo sapiens, UniProt Q9NR97).
T2 construct: host or cells: HEK-Blue cells
T2 sequence (Q9NR97 27-1041): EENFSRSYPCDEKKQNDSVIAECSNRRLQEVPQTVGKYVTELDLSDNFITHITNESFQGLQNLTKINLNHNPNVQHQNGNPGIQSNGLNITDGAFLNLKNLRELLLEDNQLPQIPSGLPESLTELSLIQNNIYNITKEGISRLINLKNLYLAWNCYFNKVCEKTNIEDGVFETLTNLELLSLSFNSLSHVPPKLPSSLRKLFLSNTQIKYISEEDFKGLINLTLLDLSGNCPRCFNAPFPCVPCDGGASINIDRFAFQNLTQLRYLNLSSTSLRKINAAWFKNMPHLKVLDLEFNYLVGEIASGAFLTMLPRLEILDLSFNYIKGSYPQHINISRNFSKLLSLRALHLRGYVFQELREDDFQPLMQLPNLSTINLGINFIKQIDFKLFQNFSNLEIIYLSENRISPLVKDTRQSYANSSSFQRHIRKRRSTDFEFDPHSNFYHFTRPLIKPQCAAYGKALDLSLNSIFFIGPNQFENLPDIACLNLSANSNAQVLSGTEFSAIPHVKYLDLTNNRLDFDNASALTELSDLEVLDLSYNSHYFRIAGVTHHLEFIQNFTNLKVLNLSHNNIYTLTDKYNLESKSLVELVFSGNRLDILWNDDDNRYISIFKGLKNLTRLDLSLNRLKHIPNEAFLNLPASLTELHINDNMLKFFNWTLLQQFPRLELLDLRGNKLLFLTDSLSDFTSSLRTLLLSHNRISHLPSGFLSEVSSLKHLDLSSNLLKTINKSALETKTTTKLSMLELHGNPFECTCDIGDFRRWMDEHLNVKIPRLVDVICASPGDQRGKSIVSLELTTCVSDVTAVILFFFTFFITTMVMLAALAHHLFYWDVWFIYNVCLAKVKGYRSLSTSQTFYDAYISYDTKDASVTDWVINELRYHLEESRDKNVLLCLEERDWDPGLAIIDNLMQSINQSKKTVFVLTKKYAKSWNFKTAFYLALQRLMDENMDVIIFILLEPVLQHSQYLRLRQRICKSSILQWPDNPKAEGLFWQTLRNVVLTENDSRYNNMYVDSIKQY
In words: TLR8 inhibition reporter assay (HEK-Blue SEAP). The conditions noted are these: HEK-Blue cells overexpressing human TLR8, stimulated with R848 15.9 μM, 22 hour incubation. The essentials:
as §1

The next experiment concerns the target T3, human TLR9 (Homo sapiens, UniProt Q9NR96).
T3 construct: host or cells: HEK-Blue cells
T3 sequence (Q9NR96 26-1032): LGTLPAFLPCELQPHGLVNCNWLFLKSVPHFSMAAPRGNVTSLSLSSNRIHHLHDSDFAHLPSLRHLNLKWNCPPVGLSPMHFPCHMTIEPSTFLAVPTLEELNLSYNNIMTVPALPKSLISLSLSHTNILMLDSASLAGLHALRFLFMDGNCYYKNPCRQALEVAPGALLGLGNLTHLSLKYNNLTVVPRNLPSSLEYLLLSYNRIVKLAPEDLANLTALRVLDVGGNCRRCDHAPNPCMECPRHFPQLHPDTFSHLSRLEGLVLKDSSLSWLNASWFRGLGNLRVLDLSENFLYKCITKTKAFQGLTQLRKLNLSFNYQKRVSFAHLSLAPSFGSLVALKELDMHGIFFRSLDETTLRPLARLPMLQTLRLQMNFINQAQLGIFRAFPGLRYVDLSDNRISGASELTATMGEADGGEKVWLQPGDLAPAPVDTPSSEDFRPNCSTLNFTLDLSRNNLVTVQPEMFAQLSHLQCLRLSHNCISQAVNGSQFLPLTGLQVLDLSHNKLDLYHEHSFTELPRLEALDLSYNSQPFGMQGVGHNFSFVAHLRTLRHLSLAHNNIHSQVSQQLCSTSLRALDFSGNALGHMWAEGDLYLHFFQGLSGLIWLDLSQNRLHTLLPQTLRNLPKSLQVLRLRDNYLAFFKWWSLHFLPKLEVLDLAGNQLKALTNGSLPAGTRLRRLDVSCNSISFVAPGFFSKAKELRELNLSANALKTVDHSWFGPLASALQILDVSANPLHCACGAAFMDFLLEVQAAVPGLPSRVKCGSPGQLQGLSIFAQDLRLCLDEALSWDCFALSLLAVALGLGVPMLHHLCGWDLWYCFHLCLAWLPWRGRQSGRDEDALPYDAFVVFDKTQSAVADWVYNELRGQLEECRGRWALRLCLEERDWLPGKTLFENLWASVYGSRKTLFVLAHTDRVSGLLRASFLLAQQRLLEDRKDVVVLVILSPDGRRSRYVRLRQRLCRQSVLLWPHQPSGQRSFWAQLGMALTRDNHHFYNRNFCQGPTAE
The experiment can be described thus: TLR9 inhibition reporter assay (HEK-Blue SEAP). The conditions noted are these: HEK-Blue cells overexpressing human TLR9, stimulated with ODN2006 5 nM, 22 hour incubation. The essentials: as §1

A word on the pIC50: it is the IC50 on a negative log10 scale, so that one unit is a factor of ten. A low value points to a large IC50.

Each structure is given as a SMILES string. pIC50: −log10 of the molar value.

For the compound `Cc1cc2c(OC3CCN(C)CC3)n[nH]c2cc1-c1cc(C)c2ncnn2c1` [Example 171, 8-methyl-6-(5-methyl-3-((1-methylpiperidin-4-yl)oxy)-1H-indazol-6-yl)-[1,2,4]triazolo[1,5-a] pyridine], the pIC50 was 8.09 at human TLR7, 10.00 against human TLR8 and 5.56 against human TLR9.

`Cc1cc2c(C3CCNCC3)n[nH]c2cc1-c1cc(C)c2ncnn2c1C` [Example 83, 5,8-dimethyl-6-(5-methyl-3-(piperidin-4-yl)-1H-indazol-6-yl)-[1,2,4]triazolo[1,5-a]pyridine]: the pIC50 at human TLR7 was 7.35; on human TLR8, 8.26; at human TLR9, 5.10.

As for `Cc1cc(-c2cc3[nH]nc(C4CCN(CC(=O)N(C)C)CC4)c3cc2C(C)C)cn2ncnc12` [Example 112, 2-(4-(5-isopropyl-6-(8-methyl-[1,2,4]triazolo[1,5-a]pyridin-6-yl)-1H-indazol-3-yl)piperidin-1-yl)-N,N-dimethylacetamide], the figures for the pIC50 at human TLR7, on human TLR8 and at human TLR9 were 8.82, 9.52 and 4.68, respectively.

As for `CCc1cc(-c2cc(C)c3ncnn3c2)cc2[nH]nc(OC3CCNCC3)c12` [Example 195, 6-(4-ethyl-3-(piperidin-4-yloxy)-1H-indazol-6-yl)-8-methyl-[1,2,4]triazolo[1,5-a]pyridine], the pIC50 at human TLR7 was 8.43; against human TLR8, 9.10; against human TLR9, 5.21.

With `Cc1cc2c(C3CCN(C(=O)CN(C)C)CC3)n[nH]c2cc1-c1cc(C)c2ncnn2c1` [Example 20, 2-(dimethylamino)-1-(4-(5-methyl-6-(8-methyl-[1,2,4]triazolo[1,5-a]pyridin-6-yl)-1H-indazol-3-yl)piperidin-1-yl)ethan-1-one], the pIC50 was 7.61 against human TLR7, 8.42 on human TLR8 and 5.35 at human TLR9.

In the case of `Cc1cc(-c2cc3[nH]nc(C4CCCNC4)c3cc2C)cc(C)n1` (stereo not drawn) [Example 50, 6-(2,6-dimethylpyridin-4-yl)-5-methyl-3-(piperidin-3-yl)-1H-indazole], the values for the pIC50 against human TLR7, against human TLR8 and against human TLR9 were 7.20, 8.82 and 6.39, respectively.

For the compound `Cc1cc2c(C3CCCNC3)n[nH]c2cc1-c1cn2ncnc2c(C)c1C` (stereo not drawn) [Example 48, 7,8-dimethyl-6-(5-methyl-3-(piperidin-3-yl)-1H-indazol-6-yl)-[1,2,4]triazolo[1,5-a]pyridine], the pIC50 was 7.32 at human TLR7, 8.60 against human TLR8 and 5.64 at human TLR9.

Take `Cc1cc(-c2cc3[nH]nc(C4CCC(N5CC(C)(C)C5)CC4)c3cc2C(C)C)cn2ncnc12` (single isomer, unassigned) [Example 136, 6-(3-(4-(3,3-dimethylazetidin-1-yl)cyclohexyl)-5-isopropyl-1H-indazol-6-yl)-8-methyl-[1,2,4]triazolo[1,5-a]pyridine]: the results for the pIC50 against human TLR7, on human TLR8 and on human TLR9 were 7.58, 8.41 and 5.31, respectively.

On to `Cc1cc2c(C3CCCN(C(=O)CN(C)C)C3)n[nH]c2cc1-c1cc(C)c2ncnn2c1` (stereo not drawn) [Example 54, 2-(dimethylamino)-1-(3-(5-methyl-6-(8-methyl-[1,2,4]triazolo[1,5-a]pyridin-6-yl)-1H-indazol-3-yl)piperidin-1-yl)ethan-1-one], for which the pIC50 against human TLR7 is 7.39; at human TLR8, 8.19; against human TLR9, 5.28.

Consider `Cc1cc(-c2cc(C)c3ncnn3c2)cc2[nH]nc(OC3CCC(NC4CC4)CC3)c12` (single isomer, unassigned) [Example 190, N-cyclopropyl-4-((4-methyl-6-(8-methyl-[1,2,4]triazolo[1,5-a]pyridin-6-yl)-1H-indazol-3-yl)oxy)cyclohexan-1-amine], for which the pIC50 on human TLR7 is 8.80; against human TLR8 it was 8.72; against human TLR9 it was 5.35.

For the compound `Cc1cc(-c2cc(C)c3ncnn3c2)cc2[nH]ncc12` [Example 65, 8-methyl-6-(4-methyl-1H-indazol-6-yl)-[1,2,4]triazolo[1,5-a]pyridine], the figures for the pIC50 against human TLR7, against human TLR8 and against human TLR9 were 6.66, 7.33 and at most 4.30, respectively.

Turning to `CCc1cc(-c2cc(C)c3ncnn3c2)cc2[nH]nc(OC3CCC(N(C)C)CC3)c12` (single isomer, unassigned) [Example 169, 4-((4-ethyl-6-(8-methyl-[1,2,4]triazolo[1,5-a]pyridin-6-yl)-1H-indazol-3-yl)oxy)-N,N-dimethylcyclohexan-1-amine], the pIC50 against human TLR7 is 8.92; on human TLR8 it was 9.30; on human TLR9, 5.74.

Turning to `Cc1cc(-c2ccc3c(C(=O)NC4CCNCC4)n[nH]c3c2)cn2ncnc12` [Example 199, 6-(8-methyl-[1,2,4]triazolo[1,5-a]pyridin-6-yl)-N-(piperidin-4-yl)-1H-indazole-3-carboxamide], the pIC50 against human TLR7 is 6.64; on human TLR8 it was 6.66; against human TLR9 it was 5.36.
